From patent US20260373266A1, “PROTEIN DEGRADERS AND USES THEREOF” (KYMERA THERAPEUTICS, INC., priority 2022, published 2026) come the findings set out here.

SMILES strings stand for the structures.

T1 sequence (Q9Y4B6 1077-1390): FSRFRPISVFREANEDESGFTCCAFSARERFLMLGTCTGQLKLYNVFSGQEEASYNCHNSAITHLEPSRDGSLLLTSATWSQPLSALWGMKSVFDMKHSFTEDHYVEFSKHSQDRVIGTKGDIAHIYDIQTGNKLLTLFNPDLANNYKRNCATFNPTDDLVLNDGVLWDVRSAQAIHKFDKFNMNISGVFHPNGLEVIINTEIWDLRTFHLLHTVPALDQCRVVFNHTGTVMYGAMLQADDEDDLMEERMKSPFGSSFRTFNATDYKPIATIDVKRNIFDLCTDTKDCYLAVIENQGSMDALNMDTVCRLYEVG

The test addresses T1, DCAF1 WD40 domain (residues 1077-1390) (Homo sapiens, UniProt Q9Y4B6).
T1 construct: DCAF1 WD40 domain (residues 1077-1390)
Kind of test: DCAF1 binding assay by SPR (Biacore 8K+), DCAF1-3 KD. To be noted: 25 °C, read-out: DCAF1-3 SPR (KD). (In general: In SPR one partner is held on a chip, and binding of the other changes the refractive index at the surface.)
One may read the Kd as the constant that tells how readily two partners part at equilibrium. Regarding `Cc1sc2c(c1C)C(c1ccccc1)=N[C@@H](CC(=O)NCCOCCOCCOCCOCCOCCOCCn1cc(C(=O)N[C@@H](CC(N)=O)c3cccc(Cl)c3)c(-c3ccccc3F)n1)c1nnc(C)n1-2` [I-493], the Kd is more than 200 µM.

In the case of `Cc1cccc(F)c1-c1[nH]ncc1C(=O)N[C@@H](CC(N)=O)c1cc(F)cc(Cl)c1` [I-748], the Kd lay within 10 to 100 µM.

As to `OCc1c(CN2CCCCC2)cccc1C1CCCN(c2cccc(F)c2)C1` (centres unmarked) [I-981], the Kd was in the range of 10 to 100 µM.

`CN(c1cccc(F)c1)[C@@H]1CCN(c2cc(N3CCCCC3)ccn2)C1` [I-673]: the Kd was less than 10 µM.

With `CC(C)n1cc(C(=O)N[C@@H](CC(N)=O)c2cccc(Cl)c2)c(-c2ccccc2F)n1` [I-138], the Kd was 10 to 100 µM.

Consider `Cc1sc(N2CCC[C@@H](Nc3cc(N4CCOCC4)ccn3)C2)nc1-c1ccccc1` [I-411], for which the Kd was more than 200 µM.

Consider `C=CC(=O)N1CCC(c2n[nH]cc2C(=O)N[C@@H](CC(N)=O)c2cccc(Cl)c2)C1` (some centres unmarked) [I-453], for which the Kd is more than 200 µM.

For the molecule `Fc1cccc(N2CCC[C@@H](Nc3cc(C4=CCCOC4)ccn3)C2)c1` [I-122], the equilibrium dissociation constant (Kd) is more than 200 µM.

`c1ccc2cc(N3CCC[C@@H](Nc4nccc(N5CCOCC5)n4)C3)ccc2c1` [I-32]: the Kd is more than 200 µM.

For `Cc1cccc(F)c1-c1c(C(=O)N[C@@H](CC(N)=O)c2cccc(Cl)c2)c[nH]c1C(=O)Cc1ccccc1` [I-622], the equilibrium dissociation constant (Kd) was less than 10 µM.

As for `Cc1c(F)ccc(F)c1-c1[nH]ncc1C(=O)N[C@H](CC(N)=O)c1ccc(F)c(Cl)c1` [I-818], the dissociation constant (Kd) was less than 10 µM.

With `C=CC(=O)N1CCC(c2[nH]ncc2C(=O)N[C@H](CC(N)=O)c2cccc(Cl)c2)CC1` [I-535], the equilibrium dissociation constant (Kd) is 100 to 200 µM.

Take `NC(=O)C[C@H](NC(=O)c1c[nH]cc1-c1ccccc1F)c1cccc(Cl)c1` [I-90]: the dissociation constant (Kd) was less than 10 µM.

Take `C[C@@H]1CC[C@H](O)CN1c1ccnc(N2CC[C@@H]3[C@H]2CCCN3c2cccc(F)c2)c1` [I-824]: the dissociation constant (Kd) was less than 10 µM.

In the case of `c1cnc2c(N3CCC[C@@H](Nc4cc(N5CCOCC5)ccn4)C3)cnn2c1` [I-417], the Kd was more than 200 µM.

For `Fc1cccc(N2CCC[C@@H](Nc3cc(N4C[C@H]5C[C@@H](C4)O5)ncn3)C2)c1` [I-311], the equilibrium dissociation constant (Kd) was more than 200 µM.

Regarding `CC(F)(c1cc(N2CCOCC2)ccn1)C1CCCN(c2cccc(F)c2)C1` (centres unmarked) [I-266], the Kd is more than 200 µM.

As for `Fc1cccc(N2CCC[C@@H](Nc3cc(N4CCCC5(CC5)C4)ccn3)C2)c1` [I-573], the equilibrium dissociation constant (Kd) was in the range of 10 to 100 µM.

As for `NC(=O)NCc1cccc(N2CCC[C@H]3[C@@H]2CCN3c2cc(N3CCCCC3)ccn2)c1` [I-953], the equilibrium dissociation constant (Kd) was less than 10 µM.

Take `Cc1c(F)ccc(F)c1-c1[nH]ncc1C(=O)N[C@H](c1cccc(Cl)c1)C1CCCS1(=O)=O` (some centres unmarked) [I-999]: the dissociation constant Kd was 10 to 100 µM.

On to `NC(=O)C[C@H](NC(=O)c1cn[nH]c1-c1ccccc1F)c1ccccc1Br` [I-581], for which the dissociation constant Kd was 10 to 100 µM.

As to `c1ccc2c(N3CCC[C@@H](Nc4cc(N5CCOCC5)ccn4)C3)ncnc2c1` [I-67], the Kd is more than 200 µM.

Turning to `c1cc(N2CCCCC2)cc(N[C@@H]2CCC[C@@H](C3CCCCC3)C2)n1` [I-752], the dissociation constant (Kd) lay in the range of 10 to 100 µM.

As for `Cc1cccc([C@H](CC(N)=O)NC(=O)c2cn[nH]c2-c2ccccc2F)c1` [I-108], the dissociation constant Kd is less than 10 µM.

Take `Cc1sc2c(c1C)C(c1ccc(Cl)cc1)=N[C@@H](CC(=O)NCCOCCOCCOCCOCCCc1ccc(C(=O)c3c(-c4c(F)ccc(F)c4C)c(C(=O)N[C@@H](CS(C)(=O)=O)c4cccc(Cl)c4)cn3C)cc1)c1nnc(C)n1-2` [I-915]: the Kd is less than 10 µM.

In the case of `NCC(=O)NCc1ccc(N2CCCCC2)cc1N[C@@H]1CCCN(c2cccc(F)c2)C1` [I-982], the Kd lay within 10 to 100 µM.

With `Fc1cccc(N2CCC[C@@H]3[C@H]2CCN3c2cc(N3CCCCCC3)ccn2)c1` [I-635], the Kd lay within 10 to 100 µM.

For `c1cc(C2CC2)cc(N2CCC[C@@H](Nc3cc(N4CCOCC4)ccn3)C2)c1` [I-526], the dissociation constant Kd is 10 to 100 µM.

With `NC(=O)C[C@H](NC(=O)c1cn[nH]c1-c1ccccc1F)c1ccncc1` [I-341], the dissociation constant (Kd) is more than 200 µM.

As to `c1ccc([C@H]2CCC[C@H](Nc3cc(N4CCCCC4)ccn3)C2)cc1` [I-755], the Kd is less than 10 µM.

For `Cc1nc(N2CCC[C@@H](Nc3cc(N4CCOCC4)ccn3)C2)ccc1CO` [I-432], the equilibrium dissociation constant (Kd) is more than 200 µM.

`Cc1sc2c(c1C)C(c1ccc(Cl)cc1)=N[C@@H](CC(=O)NCCOCCOCCOCCOCCOCCn1cc(C(=O)N[C@@H](CC(N)=O)c3cccc(Cl)c3)c(-c3ccccc3F)n1)c1nnc(C)n1-2` [I-489]: the Kd lay within 100 to 200 µM.

As for `COCCN1CCN(c2cc(N[C@@H]3CCCN(c4cccc(F)c4)C3)ncn2)CC1` [I-378], the equilibrium dissociation constant (Kd) is more than 200 µM.

Regarding `NC(=O)N1CC2(CCCN(c3cccc(F)c3)C2)Nc2cc(N3CCCCC3)ncc21` (centres unmarked) [I-1006], the equilibrium dissociation constant (Kd) fell in the range of 100 to 200 µM.

In the case of `C=CC(=O)N(C)C1CC(N(C)c2ccnc(N[C@@H]3CCCN(c4cccc(F)c4)C3)c2)C1` (some centres unmarked) [I-463], the Kd is more than 200 µM.

For `c1ccc2nc(N3CCC[C@@H](Nc4cc(N5CCOCC5)ncn4)C3)ccc2c1` [I-397], the dissociation constant Kd is more than 200 µM.

In the case of `CSc1ccc(N2CCC[C@@H](Nc3cc(N4CCOCC4)ccn3)C2)c(Cl)c1` [I-857], the Kd was more than 200 µM.

`COc1ccc(F)c(-c2[nH]ncc2C(=O)N[C@@H](CC(N)=O)c2cccc(Cl)c2)c1` [I-249]: the Kd is more than 200 µM.

As to `Fc1cccc(N2CCC[C@@H](Nc3cc(N4C5CCCC4CC5)ccn3)C2)c1` [I-617], the equilibrium dissociation constant (Kd) was less than 10 µM.

Take `Cc1cccc(-c2[nH]ncc2C(=O)N[C@@H](CC(N)=O)c2cccc(Cl)c2)c1F` [I-515]: the Kd lay in the range of 10 to 100 µM.

`COCc1ccc(F)c(-c2[nH]ncc2C(=O)N[C@@H](CC(N)=O)c2cccc(Cl)c2)c1` [I-248]: the Kd was 10 to 100 µM.

Take `Fc1cccc(N2CCC[C@@H](Nc3cc([C@@H]4CCCOC4)ccn3)C2)c1` [I-123]: the Kd is more than 200 µM.

On to `Cc1n[nH]c(C(F)(F)F)c1C(=O)N[C@@H](CC(N)=O)c1ccccc1` [I-837], for which the Kd is more than 200 µM.

Turning to `CN(c1nccc(N2CCOCC2)n1)[C@@H]1CCCN(c2cccc(F)c2)C1` [I-39], the dissociation constant (Kd) was more than 200 µM.

On to `COCCn1ncc(C(=O)N[C@@H](CC(N)=O)c2cccc(Cl)c2)c1-c1ccccc1F` [I-88], for which the Kd was more than 200 µM.

On to `C=CC(=O)N1CCN(c2ccnc(N[C@@H]3CCCN(c4cccc(F)c4)C3)c2)CC1C(F)(F)F` (some centres unmarked) [I-655], for which the dissociation constant Kd was more than 200 µM.

As to `Cc1cccc(F)c1-c1c(C(=O)N[C@@H](CC(N)=O)c2cccc(Cl)c2)c[nH]c1Nc1cc(N2CCCCC2)ccn1` [I-744], the Kd is less than 10 µM.

For the molecule `NCCCCCCCCCCCCCCCCCCCCC(=O)c1[nH]cc(C(=O)N[C@@H](CC(N)=O)c2cccc(Cl)c2)c1-c1ccccc1F` [I-670], the equilibrium dissociation constant (Kd) was more than 200 µM.

`Cc1c(F)ccc(F)c1-c1[nH]ncc1C(=O)N[C@@H](CC(=O)N1CCNCC1)c1cccc(Cl)c1` [I-885]: the dissociation constant Kd was less than 10 µM.

With `Cc1c(F)ccc(F)c1-c1[nH]ncc1C(=O)N[C@@H](CC(N)=O)c1ccc(F)c(Cl)c1` [I-819], the Kd was in the range of 10 to 100 µM.

Regarding `Oc1c(CN2CCCCC2)cccc1[C@H]1CCCN(c2cccc(F)c2)C1` [I-731], the Kd is more than 200 µM.

For `NC(=O)C[C@H](NC(=O)c1cnn(Cc2ccccc2)c1-c1ccccc1F)c1cccc(Cl)c1` [I-140], the Kd is more than 200 µM.

As for `C=CC(=O)N1CCC2(CC1)CCN(c1ccnc(N[C@@H]3CCCN(c4cccc(F)c4)C3)c1)CC2` [I-642], the dissociation constant (Kd) lay in the range of 10 to 100 µM.

`Clc1cccc(N2CCC[C@@H]3[C@H]2CCN3c2cc(N3CC4CC(C4)C3)ccn2)c1` [I-707]: the dissociation constant Kd was more than 200 µM.

On to `Cc1ccc(F)c(-c2[nH]ncc2C(=O)N[C@@H](CC(N)=O)c2cccc(Cl)c2)c1` [I-505], for which the dissociation constant (Kd) is less than 10 µM.

Regarding `COC(=O)c1cc(-c2cccc(N3CCC[C@@H](Nc4cc(N5CCOCC5)ccn4)C3)c2)on1` [I-785], the Kd was more than 200 µM.

Consider `OCCCc1cccc(N2CCC[C@@H](Nc3cc(N4CCOCC4)ccn3)C2)c1` [I-862], for which the Kd fell in the range of 10 to 100 µM.

As for `O=C(N[C@@H](c1cnoc1)c1cccc(Cl)c1)c1c[nH]nc1-c1ccccc1F` [I-233], the Kd was more than 200 µM.

Take `c1ccc(CN2CCc3ncnc(N4CCC[C@@H](Nc5cc(N6CCOCC6)ccn5)C4)c3C2)cc1` [I-870]: the Kd lay in the range of 10 to 100 µM.

In the case of `Cc1c(F)ccc(F)c1-c1c(C(=O)N[C@@H](CC(N)=O)c2cccc(Cl)c2)c[nH]c1C(=O)COCCOCCOCCOCCOCCN` [I-809], the dissociation constant (Kd) is less than 10 µM.

Turning to `CCCN(c1nccc(N2CCOCC2)n1)[C@@H]1CCCN(c2cccc(F)c2)C1` [I-44], the Kd was more than 200 µM.

For `Fc1cccc(N2CCC[C@@H](n3cnc4c(N5CCOCC5)ccnc43)C2)c1` [I-50], the Kd was more than 200 µM.

With `O=C(O)[C@@H]1[C@H](Nc2cc(N3CCOCC3)ccn2)CCCN1c1cccc(F)c1` [I-287], the Kd is more than 200 µM.

In the case of `Fc1cccc(N2CCC[C@@H](Nc3cc(N4CCCCC4)ncn3)C2)c1` [I-379], the dissociation constant (Kd) is more than 200 µM.

`OC[C@@H]1[C@H](Nc2cc(N3CCOCC3)ccn2)CCCN1c1cccc(F)c1` [I-279]: the Kd was more than 200 µM.

`NC(=O)C[C@H](NC(=O)c1cn[nH]c1-c1c(F)cccc1C(F)(F)F)c1cccc(Cl)c1` [I-630]: the Kd was less than 10 µM.

With `Fc1cccc(N2CCC[C@@H](Nc3nccc(N4CCOCC4)n3)C2)c1` [I-370], the Kd is more than 200 µM.

With `CCN(c1nccc(N2CCOCC2)n1)[C@@H]1CCCN(c2cccc(F)c2)C1` [I-42], the dissociation constant (Kd) is more than 200 µM.

With `C[C@H]1CC[C@H](O)CN1c1ccnc(N2CC[C@@H]3[C@H]2CCCN3c2cccc(F)c2)c1` [I-823], the Kd is less than 10 µM.

With `O=C(CC1CN(C(=O)N2CCC=C(F)C2)CCO1)Nc1ccccn1` (centres unmarked) [I-86], the dissociation constant Kd was more than 200 µM.

With `Cc1nc(N2CCC[C@@H](Nc3cc(N4CCOCC4)ccn3)C2)nc2ccccc12` [I-415], the dissociation constant Kd is 10 to 100 µM.

Consider `COc1cnc(N2CCOCC2)cc1N[C@@H]1CCCN(c2cccc(F)c2)C1` [I-407], for which the dissociation constant (Kd) is more than 200 µM.

Consider `N#Cc1cccc(-c2[nH]ncc2C(=O)N[C@@H](CC(N)=O)c2cccc(Cl)c2)c1` [I-337], for which the equilibrium dissociation constant (Kd) was less than 10 µM.

Consider `NC(=O)C[C@H](NC(=O)c1[nH][nH]c(=O)c1-c1ccccc1F)c1cccc(Cl)c1` [I-548], for which the dissociation constant (Kd) was more than 200 µM.
